For 60 compounds, EC50 results are on record in US8933075B2, “Compounds useful as antiviral agents, compositions, and methods of use” (priority 2010, dated 2015).

This experiment relates to A/Udorn/72 (H3N2) virus. Nature of the experiment: Plaque assay in MDCK cells: EC50 by reduction of plaque number. The conditions noted are these: MDCK. It counts as cell-based, influenza virus.

With `O=C1/C(=C/c2sc(-c3ccc(Cl)cc3)cc2CCCCCO)SC(=S)N1C1CC2CCC1C2` (stereo not drawn) [Compound 278], the 50% effective concentration (EC50) (usually the concentration that produces a half-maximal response) was under 100 nM.
The value for `COc1cccc(-c2cc(CCCCCO)c(/C=C3\SC(=S)N(C4C5CC6CC(C5)CC4C6)C3=O)s2)c1` (stereo not drawn) [Compound 279] was under 100 nM.
The value for `COc1cccc(-c2cc(CCCCCO)c(/C=C3\SC(=S)N(C4CC5CCC4C5)C3=O)s2)c1` (stereo not drawn) [Compound 280] was under 100 nM; that for `O=C1/C(=C/c2sc(-c3ccc(Cl)cc3)cc2CCCCCO)SC(=S)N1C1C2CC3CC(C2)CC1C3` (stereo not drawn) [Compound 281] was under 100 nM; that for `COc1cccc(-c2cc(CCCO)c(/C=C3\SC(=S)N(C4C5CC6CC(C5)CC4C6)C3=O)s2)c1` (stereo not drawn) [Compound 282] was under 100 nM.
The value for `O=C1/C(=C/c2cc(CCCCCO)c(-c3ccc(Cl)cc3)s2)SC(=S)N1C1C2CC3CC(C2)CC1C3` (stereo not drawn) [Compound 283] was under 100 nM.
Compound `O=C1/C(=C/c2cc(CCCCCO)c(-c3ccc(Cl)cc3)s2)SC(=S)N1C1CC2CCC1C2` (stereo not drawn) [Compound 284] gave an EC50 of under 100 nM.
Compound `O=C1/C(=C/c2sc(-c3cccc(Cl)c3)cc2C#CCCCO)SC(=S)N1C1C2CC3CC(C2)CC1C3` (stereo not drawn) [Compound 285] had a half-maximal effective concentration (EC50) of under 100 nM.
Then `O=C1/C(=C/c2sc(-c3cccc(Cl)c3)cc2C#CCCCO)SC(=S)N1C1CC2CCC1C2` (stereo not drawn) [Compound 286], with under 100 nM; and `O=C1/C(=C/c2cc(C#CCCCO)c(-c3ccc(Cl)cc3)s2)SC(=S)N1C1C2CC3CC(C2)CC1C3` (stereo not drawn) [Compound 287], with under 100 nM; and `O=C1/C(=C/c2cc(C#CCCCO)c(-c3ccc(Cl)cc3)s2)SC(=S)N1C1CC2CCC1C2` (stereo not drawn) [Compound 288], with under 100 nM.
The value for `COc1cccc(-c2sc(/C=C3\SC(=S)N(C4C5CC6CC(C5)CC4C6)C3=O)cc2C#CCCCO)c1` (stereo not drawn) [Compound 289] was under 100 nM; that for `O=C1/C(=C/c2sc(-c3ccc(Cl)cc3)cc2C#CCCCO)SC(=S)N1C1C2CC3CC(C2)CC1C3` (stereo not drawn) [Compound 290] was under 100 nM.
In the case of `O=C1/C(=C/c2sc(-c3ccc(Cl)cc3)cc2C#CCCCO)SC(=S)N1C1CC2CCC1C2` (stereo not drawn) [Compound 291], the EC50 is under 100 nM.
The value for `COc1cccc(-c2cc(C#CCCCO)c(/C=C3\SC(=S)N(C4CC5CCC4C5)C3=O)s2)c1` (stereo not drawn) [Compound 292] was under 100 nM; that for `CC(C)(C)OC(=O)N[C@@H](CC(N)=O)C(=O)OCCCCCc1cc(-c2ccc(Cl)cc2)sc1/C=C1\SC(=S)N(C2C3CC4CC(C3)CC2C4)C1=O` (stereo partly drawn) [Compound 308] was under 100 nM; that for `CC(C)(C)N1C(=O)C[C@@H](C(=O)OCCCCCc2cc(-c3cccc(Cl)c3)sc2/C=C2\SC(=S)N(C3C4CC5CC(C4)CC3C5)C2=O)NC1=O` (stereo partly drawn) [Compound 309] was under 100 nM.
The value for `COc1cccc(-c2cc(CCCCCOC(=O)[C@H](CC(N)=O)NC(=O)OC(C)(C)C)c(/C=C3\SC(=S)N(C4C5CC6CC(C5)CC4C6)C3=O)s2)c1` (stereo partly drawn) [Compound 310] was under 100 nM; that for `CC(C)(C)OC(=O)N[C@@H](CC(N)=O)C(=O)OCCCC#Cc1cc(-c2cccc(Cl)c2)sc1/C=C1\SC(=S)N(C2CC3CCC2C3)C1=O` (stereo partly drawn) [Compound 311] was under 100 nM.
The value for `CC(C)(C)OC(=O)N[C@@H](CC(N)=O)C(=O)OCCCC#Cc1cc(-c2cccc(Cl)c2)sc1/C=C1\SC(=S)N(C2C3CC4CC(C3)CC2C4)C1=O` (stereo partly drawn) [Compound 312] was under 100 nM.
As to `COc1cccc(-c2cc(CCCCCOC(=O)[C@H](CC(N)=O)NC(=O)OC(C)(C)C)c(/C=C3\SC(=S)N(C4CC5CCC4C5)C3=O)s2)c1` (stereo partly drawn) [Compound 313], the concentration giving a half-maximal response (EC50) was under 100 nM.
The value for `COc1cccc(-c2cc(C#CCCCOC(=O)[C@H](CC(N)=O)NC(=O)OC(C)(C)C)c(/C=C3\SC(=S)N(C4CC5CCC4C5)C3=O)s2)c1` (stereo partly drawn) [Compound 314] was under 100 nM; that for `COc1cc(COc2ccc3oc(=O)c(-c4ccc(/C=C5\SC(=S)N(C6CC7CCC6C7)C5=O)s4)c(O)c3c2)cc(OC)c1` (stereo not drawn) [Compound 315] was under 100 nM; that for `O=C1/C(=C/c2ccc(-c3ccc(Cl)cc3)s2)SC(=S)N1C1CC2CCC1C2` (stereo not drawn) [Compound 316] was under 100 nM.
The value for `O=C1/C(=C/c2ccc(-c3ccc(Cl)cc3)s2)SC(=S)N1C1C2CC3CC(C2)CC1C3` (stereo not drawn) [Compound 317] was under 100 nM.
The compound `COC(=O)COc1ccc2c(O)c(-c3ccc(/C=C4\SC(=S)N(C5CC6CCC5C6)C4=O)o3)c(=O)oc2c1` (stereo not drawn) [Compound 318] registered a concentration for a half-maximal effect (EC50) of under 100 nM.
The compound `COC(=O)COc1ccc2c(O)c(-c3ccc(/C=C4\SC(=S)N(C5C6CC7CC(C6)CC5C7)C4=O)o3)c(=O)oc2c1` (stereo not drawn) [Compound 319] returned an EC50 of under 100 nM.
As to `CCCCCc1ccc2oc(=O)c(-c3ccc(/C=C4\SC(=S)N(C5CC6CCC5C6)C4=O)o3)c(O)c2c1` (stereo not drawn) [Compound 320], the half-maximal effective concentration (EC50) was under 100 nM.
The value for `O=C1/C(=C/c2ccc(-c3c(O)c4cc(OCc5ccc(Cl)cc5)ccc4oc3=O)o2)SC(=S)N1C1CC2CCC1C2` (stereo not drawn) [Compound 321] was under 100 nM; that for `O=C1/C(=C/c2ccc(-c3c(O)c4cc(Cl)ccc4oc3=O)o2)SC(=S)N1C1CC2CCC1C2` (stereo not drawn) [Compound 322] was under 100 nM.
Then `O=C1/C(=C/c2ccc(-c3c(O)c4ccc(OC5CCCCC5)cc4oc3=O)o2)SC(=S)N1C1CC2CCC1C2` (stereo not drawn) [Compound 323], with under 100 nM; and `O=C1/C(=C/c2ccc(-c3c(O)c4ccc(O)cc4oc3=O)o2)SC(=S)N1C1CC2CCC1C2` (stereo not drawn) [Compound 324], with under 100 nM.
The value for `O=C1/C(=C/c2ccc(-c3c(O)c4cc(O)ccc4oc3=O)o2)SC(=S)N1C1CC2CCC1C2` (stereo not drawn) [Compound 325] was under 100 nM; that for `COc1cc(COc2ccc3oc(=O)c(-c4ccc(/C=C5\SC(=S)N(C6CC7CCC6C7)C5=O)o4)c(O)c3c2)cc(OC)c1` (stereo not drawn) [Compound 326] was under 100 nM.
`O=C1/C(=C/c2oc(-c3ccc(Cl)cc3)cc2CCCCO)SC(=S)N1C1CC2CCC1C2` (stereo not drawn) [Compound 333]: the EC50 is under 100 nM.
Then `O=C1/C(=C/c2oc(-c3ccc(Cl)cc3)cc2CCCCCO)SC(=S)N1C1C2CC3CC(C2)CC1C3` (stereo not drawn) [Compound 334], with under 100 nM.
Then `O=C1/C(=C/c2oc(-c3ccc(Cl)cc3)cc2CCCCO)SC(=S)N1C1C2CC3CC(C2)CC1C3` (stereo not drawn) [Compound 335], with under 100 nM.
The value for `COc1ccc2oc(=O)c(CCC(=O)OCCCc3cc(-c4ccc(Cl)cc4)oc3/C=C3\SC(=S)N(C4CC5CCC4C5)C3=O)c(O)c2c1` (stereo not drawn) [Compound 336] was under 100 nM.
For `O=C1/C(=C/c2oc(-c3ccc(C(F)(F)F)cc3)cc2CCCCCO)SC(=S)N1C1CC2CCC1C2` (stereo not drawn) [Compound 337], the EC50 is under 100 nM.
The value for `O=C1/C(=C/c2oc(-c3ccc(C(F)(F)F)cc3)cc2CCCCCO)SC(=S)N1C1C2CC3CC(C2)CC1C3` (stereo not drawn) [Compound 338] was under 100 nM.
The value for `O=C1/C(=C/c2oc(-c3ccc(OC(F)(F)F)cc3)cc2CCCCCO)SC(=S)N1C1C2CC3CC(C2)CC1C3` (stereo not drawn) [Compound 339] was under 100 nM.
The compound `O=C1/C(=C/c2oc(-c3ccc(OC(F)(F)F)cc3)cc2CCCCCO)SC(=S)N1C1CC2CCC1C2` (stereo not drawn) [Compound 340] returned a concentration giving a half-maximal response (EC50) of under 100 nM.
Then `COc1ccc(-c2cc(CCCCCO)c(/C=C3\SC(=S)N(C4CC5CCC4C5)C3=O)o2)cc1` (stereo not drawn) [Compound 341], with under 100 nM.
The value for `COc1ccc(-c2cc(CCCCCO)c(/C=C3\SC(=S)N(C4C5CC6CC(C5)CC4C6)C3=O)o2)cc1` (stereo not drawn) [Compound 342] was under 100 nM; that for `O=C1/C(=C/c2oc(-c3cccc(F)c3)cc2CCCCCO)SC(=S)N1C1CC2CCC1C2` (stereo not drawn) [Compound 343] was under 100 nM; that for `O=C1/C(=C/c2oc(-c3cccc(F)c3)cc2CCCCCO)SC(=S)N1C1C2CC3CC(C2)CC1C3` (stereo not drawn) [Compound 344] was under 100 nM.
Then `O=C1/C(=C/c2oc(-c3cccc(Cl)c3)cc2CCCCCO)SC(=S)N1C1CC2CCC1C2` (stereo not drawn) [Compound 345], with under 100 nM; and `O=C1/C(=C/c2oc(-c3cccc(Cl)c3)cc2CCCCCO)SC(=S)N1C1C2CC3CC(C2)CC1C3` (stereo not drawn) [Compound 346], with under 100 nM; and `COc1cccc(-c2cc(CCCCCO)c(/C=C3\SC(=S)N(C4C5CC6CC(C5)CC4C6)C3=O)o2)c1` (stereo not drawn) [Compound 347], with under 100 nM.
For `COc1cccc(-c2cc(CCCCCO)c(/C=C3\SC(=S)N(C4CC5CCC4C5)C3=O)o2)c1` (stereo not drawn) [Compound 348], the half-maximal effective concentration (EC50) is under 100 nM.
The value for `COc1ccc(-c2cc(CCCO)c(/C=C3\SC(=O)N(C4CC5CCC4C5)C3=O)o2)cc1OCC(=O)N1CCC[C@H]1C(=O)O` (stereo partly drawn) [Compound 349] was under 100 nM; that for `COc1cc(OCC(=O)N2CCC[C@H]2C(=O)O)cc(-c2cc(CCCO)c(/C=C3\SC(=S)N(C4CC5CCC4C5)C3=O)o2)c1` (stereo partly drawn) [Compound 350] was under 100 nM; that for `COc1cccc(-c2cc(CCCO)c(/C=C3\SC(=S)N(C4C5CC6CC(C5)CC4C6)C3=O)o2)c1` (stereo not drawn) [Compound 352] was under 100 nM.
The value for `COc1cccc(-c2cc(CCCO)c(/C=C3\SC(=S)N(C4CC5CCC4C5)C3=O)o2)c1` (stereo not drawn) [Compound 353] was under 100 nM; that for `COc1cccc(-c2cc(CCCOC(=O)[C@@H](CC(N)=O)NC(=O)OC(C)(C)C)c(/C=C3\SC(=S)N(C4C5CC6CC(C5)CC4C6)C3=O)o2)c1` (stereo partly drawn) [Compound 354] was under 100 nM; that for `COc1cc(OC)cc(-c2cc(CCCCCOC(=O)[C@]3(O)C[C@@H](O)[C@@H](O)[C@H](O)C3)c(/C=C3\SC(=S)N(C4CC5CCC4C5)C3=O)o2)c1` (stereo partly drawn) [Compound 356] was under 100 nM.
Take `COc1cc(OC)cc(-c2cc(CCCCOC(=O)[C@]3(O)C[C@@H](O)[C@@H](O)[C@H](O)C3)c(/C=C3\SC(=S)N(C4CC5CCC4C5)C3=O)o2)c1` (stereo partly drawn) [Compound 357]: the EC50 was under 100 nM.
The value for `COc1cc(OC)cc(-c2cc(CCCCN3CCOCC3)c(/C=C3\SC(=S)N(C4CC5CCC4C5)C3=O)o2)c1` (stereo not drawn) [Compound 359] was under 100 nM; that for `COc1cc(OC)cc(-c2cc(CCCCCN3CCOCC3)c(/C=C3\SC(=S)N(C4CC5CCC4C5)C3=O)o2)c1` (stereo not drawn) [Compound 360] was under 100 nM.
Turning to `CC(C)(C)OC(=O)N[C@@H](CC(N)=O)C(=O)N1CCN(CCCCCc2cc(-c3ccc(Cl)cc3)oc2/C=C2\SC(=S)N(C3C4CC5CC(C4)CC3C5)C2=O)CC1` (stereo partly drawn) [Compound 373], the EC50 was under 100 nM.
